2 compounds from patent publication US7410974B2, “Halogenated Quinazolinyl nitrofurans as antibacterial agents” (Ulysses Pharmaceutical Products, Inc., priority 2003, dated 2008) can be followed below.

In test [1] the test system is S. saprophyticus ATCC 15305. The test can be described thus: MIC broth microdilution (NCCLS). It is filed as cell-based, Staphylococcus saprophyticus. Conditions: Staphylococcus saprophyticus, ATCC15305; S. saprophyticus ATCC 15305; read-out: MIC. The essentials: (§1)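 NCCLS broth microdilution; inoculum 10^5-10^6 CFU/ml; 2-fold serial dilutions; 35° C, 24 h; A650 plus visual read. Media: MHBCA (S. saprophyticus, E. faecium), MHBCA + 2% laked horse blood (Listeria), HTM (Haemophilus), the last two under 5% CO2.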
For orientation: In broth dilution the organism is exposed to a series of concentrations in liquid medium.

For a further test, the system named is S. aureus MRSA COL. The test can be described thus: MIC broth microdilution (NCCLS). It is filed as cell-based, Staphylococcus aureus. The note with it: S. aureus MRSA COL. The essentials:
(§2)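 Broth microdilution per NCCLS in cation-adjusted Mueller Hinton broth, inoculum 10^5-10^6 CFU/ml, serial 2-fold dilutions, 24 h at 35 °C. MIC is lowest concentration with no visible growth, read at 650 nm and visually.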

The next test has as its system E. faecalis ATCC 29212. Put plainly: MIC broth microdilution (NCCLS). It is filed as cell-based, Enterococcus faecalis. The note with it: E. faecalis ATCC 29212.
The subject of another test is E. coli MC4100. The test can be described thus: MIC broth microdilution (NCCLS). Conditions: Escherichia coli; E. coli MC4100, pathotype Reference. The format is cell-based. The protocol:
Minimal Inhibitory Concentration (MIC) Determination. Bacteria (primary strain panel, TABLE 1). Susceptibility tests were performed following the recommendations from the National Committee for Clinical Standards (NCCLS). The MICs were determined by a broth microdilution technique using a final volume of 100 μl of cation-adjusted Mueller Hinton Broth (MHBCA) and a bacterial inoculum of 10^5-10^6 Colony Forming Units (CFU)/ml. The inocula were verified and precisely determined by applying 10-μl drops of 10-fold dilutions onto Triptic Soy Agar plates. The CFU were counted after an incubation of 24 h at 35° C. Any experiment showing an inoculum that was more or less than 10^5-10^6 CFU/ml was rejected. Control antibiotics and test compounds were prepared at a concentration equivalent to 2-fold the highest desired final concentration. Compounds were then diluted directly in the 96-well microtiter plates by serial 2-fold dilutions using a multichannel pipette. Microtiter plates were incubated during 24 h at 35° C. and growth was recorded by using a microtiterplate reader at 650 nm as well as by visual observation. The MIC was defined as the lowest concentration of compound yielding no visible growth. […] Fastidious bacteria. The medium used for Listeria monocytogenes, Neisseria meningitidis, and Campylobacter jejuni was MHBCA containing 2% laked horse blood. The medium used for Haemophilus influenzae and Branhamella (Moraxella) catarrhalis was HTM as recommended by the NCCLS. Cultures of these fastidious bacteria were incubated at 35° C. in a 5% CO2 atmosphere. […] The medium used for Bacteroides fragilis was Wilkins Chalgren broth and growth was allowed under an anaerobic atmosphere at 35° C. for 48 hours.

The subject of test [2] is Y. enterocolytica ATCC 23715. Put plainly: MIC broth microdilution (NCCLS). The format is cell-based, Yersinia enterocolytica. The note with it: Yersinia, ATCC23715, read-out: MIC. The procedure, abridged:
(§3)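 Susceptibility by NCCLS microdilution: checked inoculum 10^5-10^6 CFU/ml, 24 h at 35° C, and growth assessed at 650 nm and by eye. Haemophilus was tested in HTM medium and Listeria with laked horse blood, each incubated under 5% CO2.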

Another test has as its system E. faecium ATCC 35667. The test can be described thus: MIC broth microdilution (NCCLS). The note with it: Enterococcus faecium, ATCC35667, E. faecium ATCC 35667; read-out: MIC. It is filed as cell-based, Enterococcus faecium. The essentials: as §1
In test [3] the test system is S. epidermidis ATCC 12228. The test can be described thus: MIC broth microdilution (NCCLS). The format is cell-based, Staphylococcus epidermidis. Conditions: Staphylococcus epidermidis, ATCC12228; S. epidermidis ATCC 12228; read-out: MIC. The essentials: as §3
For the next test, the system named is MRSA strain Sa224c. The test can be described thus: MIC broth microdilution, antibiotic resistant strain panel. It is filed as cell-based, Staphylococcus aureus. Conditions: Staphylococcus aureus; multi-resistant MRSA strain Sa224c; read-out: MIC. The procedure, abridged:
as §2

The subject of a further test is MRSA strain Sa228c. Described as above. The note with it: Staphylococcus aureus; multi-resistant MRSA strain Sa228c; read-out: MIC. The format is cell-based, Staphylococcus aureus. The essentials:
as §2

In another test the test system is MRSA strain Sa220c. The description is as above. The format is cell-based, Staphylococcus aureus. The note with it: Staphylococcus aureus; multi-resistant MRSA strain Sa220c; read-out: MIC. The essentials:
as §2

The next test concerns MRSA strain Sa211c. The description is as above. The format is cell-based, Staphylococcus aureus. Conditions: Staphylococcus aureus; multi-resistant MRSA strain Sa211c; read-out: MIC. The essentials: as §2
Another test concerns MRSA strain Sa249c. The test is described as above. It is filed as cell-based, Staphylococcus aureus. The note with it: Staphylococcus aureus; multi-resistant MRSA strain Sa249c; read-out: MIC. The essentials: as §2
In the next test the test system is MRSA strain Sa212c. The description is as above. It is filed as cell-based, Staphylococcus aureus. Conditions: Staphylococcus aureus; multi-resistant MRSA strain Sa212c; read-out: MIC. The procedure, abridged: as §2
Another test concerns MRSA strain Sa253c. The description is as above. The format is cell-based, Staphylococcus aureus. The note with it: Staphylococcus aureus; multi-resistant MRSA strain Sa253c; read-out: MIC. The essentials: as §2
The subject of the next test is MRSA strain Sa248c. Described as above. The note with it: Staphylococcus aureus; multi-resistant MRSA strain Sa248c; read-out: MIC. The format is cell-based, Staphylococcus aureus. The procedure, abridged:
as §2

The test system of the next test is MRSA strain Sa234c. The description is as above. The note with it: Staphylococcus aureus; multi-resistant MRSA strain Sa234c; read-out: MIC. The format is cell-based, Staphylococcus aureus. The procedure, abridged:
as §2

The subject of the next test is E. coli ATCC 25922. Put plainly: MIC broth microdilution (NCCLS). It is filed as cell-based, Escherichia coli.
Setting [4] is: Staphylococcus aureus, MRSA, read-out: MIC.
Setting [5] is: Enterococcus faecalis, ATCC29212, read-out: MIC.
Where [6] appears, read: Escherichia coli, ATCC25922, E. coli ATCC 25922 (Reference), read-out: MIC.

Converted amounts (≈) assume the structure as drawn. Where two headings read alike, the source gives them in different places.

One may read the MIC as the lowest concentration found to suppress growth. As to `O=[N+]([O-])c1ccc(C=Cc2nc(Nc3ccc(O)cc3)c3cc(F)ccc3n2)o1` [Compound V, 6-fluoro-2-[2-(5-nitro-2-furyl)vinyl]-4-(p-hydroxyanilino)-quinazoline], the MIC in [1] was 0.015 to 0.03 µg/mL (≈ 0.0382 to 0.0765 µM); in the test on S. aureus MRSA COL (setting [4]) it was 0.015 µg/mL (≈ 0.0382 µM); with E. faecalis ATCC 29212 (listed as Example I compound V) it was 0.03 µg/mL (≈ 0.0765 µM); in the test on E. faecalis ATCC 29212 (setting [5]), 0.03 µg/mL (≈ 0.0765 µM); against E. coli MC4100, 1 µg/mL (≈ 2.55 µM); in [2] it was 0.25 µg/mL (≈ 0.637 µM). For the same compound, the MIC is 0.06 µg/mL (≈ 0.153 µM) with E. faecium ATCC 35667; 0.03 µg/mL (≈ 0.0765 µM) in test [3]; at most 0.06 µg/mL with MRSA strain Sa224c; at most 0.06 µg/mL in the test on MRSA strain Sa228c; at most 0.06 µg/mL in the test on MRSA strain Sa220c; at most 0.06 µg/mL with MRSA strain Sa211c. Moreover, the MIC in the test with MRSA strain Sa249c is at most 0.06 µg/mL; with MRSA strain Sa212c, 0.125 µg/mL (≈ 0.319 µM); with MRSA strain Sa253c, at most 0.06 µg/mL; with MRSA strain Sa248c it was at most 0.06 µg/mL; with MRSA strain Sa234c, at most 0.06 µg/mL; in the test on E. coli ATCC 25922 (E. coli ATCC 25922 (Reference), listed as Example I compound V), 0.5 µg/mL (≈ 1.27 µM). Besides, the MIC in the test with E. coli ATCC 25922 (setting [6]) amounted to 0.5 µg/mL (≈ 1.27 µM).

Take `O=C1CN(/N=C/c2ccc([N+](=O)[O-])o2)C(=O)N1` [Nitrofurantoin]: the MIC is 8 µg/mL (≈ 33.6 µM) in [1]; 8 to 16 µg/mL in the test with S. aureus MRSA COL; 16 µg/mL (≈ 67.2 µM) in the test on S. aureus MRSA COL (setting [4]); 8 to 16 µg/mL (≈ 33.6 to 67.2 µM) in the test on E. faecalis ATCC 29212 (setting [5]); 8 to 16 µg/mL (≈ 33.6 to 67.2 µM) in the test on E. coli MC4100; 64 µg/mL (≈ 269 µM) in [2]. For the same compound, the MIC in the test with E. faecium ATCC 35667 is 64 µg/mL (≈ 269 µM); in [3] it was 16 µg/mL (≈ 67.2 µM); in the test with MRSA strain Sa224c, 16 µg/mL (≈ 67.2 µM); in the test on MRSA strain Sa228c, 16 to 32 µg/mL (≈ 67.2 to 134 µM); in the test on MRSA strain Sa220c it was 16 µg/mL (≈ 67.2 µM); in the test on MRSA strain Sa211c, 16 to 32 µg/mL (≈ 67.2 to 134 µM). Besides, the MIC was 16 µg/mL (≈ 67.2 µM) with MRSA strain Sa249c; 32 µg/mL (≈ 134 µM) in the test on MRSA strain Sa212c; 16 µg/mL (≈ 67.2 µM) in the test with MRSA strain Sa253c; 16 µg/mL (≈ 67.2 µM) in the test with MRSA strain Sa248c; 16 to 32 µg/mL (≈ 67.2 to 134 µM) with MRSA strain Sa234c; 8 to 16 µg/mL against E. coli ATCC 25922 (E. coli ATCC 25922 (Reference)). Besides, the MIC with E. coli ATCC 25922 (setting [6]) was found to be 8 µg/mL (≈ 33.6 µM).
